# Source: ChEMBL document CHEMBL4184210, “Optimization of novel monobactams with activity against carbapenem-resistant Enterobacteriaceae - Identification of LYS228” (Bioorg Med Chem Lett, 2018)
# Experiments:
# [1] = tested on: Escherichia coli; assay: microbe, parasite or virus in culture
# [2] = tested on: Pseudomonas aeruginosa; assay: Antimicrobial activity against Pseudomonas aeruginosa ATCC 27853 by CLSI broth microdilution method; type: functional
# [3] = tested on: Pseudomonas aeruginosa; assay: Antimicrobial activity against Pseudomonas aeruginosa expressing delta-mexB/delta-mexXY/delta-mexCD and delta-ampC mutant by CLSI broth microdilution method; type: functional
# [4] = tested on: Escherichia coli; assay: microbe, parasite or virus in culture; remark: listed apart in the source
# [5] = tested on: Escherichia coli; assay: microbe, parasite or virus in culture; remark: listed apart in the source
# [6] = tested on: Pseudomonas aeruginosa; assay: Antimicrobial activity against Pseudomonas aeruginosa expressing nalB/delta-mexXY/delta-mexCDoprJ/delta-ampC by CLSI broth microdilution method; type: functional
# [7] = tested on: Escherichia coli; assay: microbe, parasite or virus in culture; remark: listed apart in the source
# [8] = tested on: Pseudomonas aeruginosa; assay: Antimicrobial activity against Pseudomonas aeruginosa expressing delta-mexB/mexXY/delta-ampDh2/ delta-ampD by CLSI broth microdilution method; type: functional
# [9] = tested on: Escherichia coli; assay: Antimicrobial activity against Escherichia coli expressing beta-lactamase KPC-2 by CLSI broth microdilution method; type: functional
# [10] = tested on: Escherichia coli; assay: microbe, parasite or virus in culture; remark: listed apart in the source
# [11] = tested on: Escherichia coli; assay: microbe, parasite or virus in culture; remark: listed apart in the source
# [12] = tested on: Escherichia coli; assay: microbe, parasite or virus in culture; remark: listed apart in the source
# [13] = tested on: Escherichia coli; assay: microbe, parasite or virus in culture; remark: listed apart in the source
# [14] = tested on: Escherichia coli; assay: microbe, parasite or virus in culture; remark: listed apart in the source
# [15] = tested on: Escherichia coli; assay: microbe, parasite or virus in culture; remark: listed apart in the source
# [16] = tested on: Escherichia coli; assay: microbe, parasite or virus in culture; remark: listed apart in the source
# [17] = tested on: Escherichia coli; assay: microbe, parasite or virus in culture; remark: listed apart in the source
# [18] = tested on: Escherichia coli; assay: microbe, parasite or virus in culture; remark: listed apart in the source
# [19] = tested on: Escherichia coli; assay: microbe, parasite or virus in culture; remark: listed apart in the source
# [20] = tested on: Escherichia coli; assay: microbe, parasite or virus in culture; remark: listed apart in the source
# [21] = tested on: Escherichia coli; assay: microbe, parasite or virus in culture; remark: listed apart in the source
# [22] = tested on: Escherichia coli; assay: microbe, parasite or virus in culture; remark: listed apart in the source
# [23] = tested on: Escherichia coli; assay: microbe, parasite or virus in culture; remark: listed apart in the source
# [24] = tested on: Escherichia coli; assay: microbe, parasite or virus in culture; remark: listed apart in the source
# [25] = tested on: Escherichia coli; assay: microbe, parasite or virus in culture; remark: listed apart in the source
# [26] = tested on: Escherichia coli; assay: microbe, parasite or virus in culture; remark: listed apart in the source
# [27] = tested on: Escherichia coli; assay: microbe, parasite or virus in culture; remark: listed apart in the source
# [28] = tested on: Escherichia coli; assay: microbe, parasite or virus in culture; remark: listed apart in the source
# [29] = Chemical stability in pH 7.4 potassium phosphate buffer assessed as half life for compound hydrolysis at 37 degC by UPLC and mass spectrometry; type: physicochemical
# [30] = tested on: Escherichia coli; assay: Antimicrobial activity against Escherichia coli expressing beta-lactamase NDM-1 by CLSI broth microdilution method; type: functional
# [31] = tested on: Escherichia coli; assay: microbe, parasite or virus in culture; remark: listed apart in the source
# [32] = tested on: Escherichia coli; assay: microbe, parasite or virus in culture; remark: listed apart in the source
# [33] = tested on: Escherichia coli; assay: microbe, parasite or virus in culture; remark: listed apart in the source
# [34] = tested on: Escherichia coli; assay: Antimicrobial activity against Escherichia coli expressing beta-lactamase NDM-5 by CLSI broth microdilution method; type: functional
# [35] = tested on: Escherichia coli; assay: microbe, parasite or virus in culture; remark: listed apart in the source
# [36] = tested on: Escherichia coli; assay: microbe, parasite or virus in culture; remark: listed apart in the source
# [37] = tested on: Escherichia coli; assay: microbe, parasite or virus in culture; remark: listed apart in the source
# [38] = tested on: Escherichia coli; assay: Antimicrobial activity against Escherichia coli expressing beta-lactamase TEM-1 by CLSI broth microdilution method; type: functional
# [39] = tested on: Escherichia coli; assay: Antimicrobial activity against Escherichia coli expressing beta-lactamase VEB-1 by CLSI broth microdilution method; type: functional
# [40] = tested on: Escherichia coli; assay: microbe, parasite or virus in culture; remark: listed apart in the source
# [41] = tested on: Escherichia coli; assay: microbe, parasite or virus in culture; remark: listed apart in the source
# [42] = tested on: Escherichia coli; assay: microbe, parasite or virus in culture; remark: listed apart in the source
# [43] = tested on: Escherichia coli; assay: microbe, parasite or virus in culture; remark: listed apart in the source
# [44] = tested on: Escherichia coli; assay: microbe, parasite or virus in culture; remark: listed apart in the source
# [45] = tested on: Escherichia coli; assay: microbe, parasite or virus in culture; remark: listed apart in the source
# [46] = tested on: Escherichia coli; assay: microbe, parasite or virus in culture; remark: listed apart in the source
# [47] = tested on: Escherichia coli; assay: microbe, parasite or virus in culture; remark: listed apart in the source
# [48] = tested on: Escherichia coli; assay: microbe, parasite or virus in culture; remark: listed apart in the source
# [49] = tested on: Escherichia coli; assay: microbe, parasite or virus in culture; remark: listed apart in the source
# [50] = tested on: Escherichia coli; assay: microbe, parasite or virus in culture; remark: listed apart in the source
smiles,measurement,setting,value
CC(C)(O/N=C(\C(=O)N[C@@H]1C(=O)N(S(=O)(=O)O)[C@@H]1Cn1cncn1)c1nsc(N)n1)C(=O)O,MIC,[1],32 µg/mL
same,MIC,[2],32 µg/mL
same,MIC,[3],1 µg/mL
same,MIC,[4],1 µg/mL
same,MIC,[5],1 µg/mL
same,MIC,[6],> 64 µg/mL
same,MIC,[7],16 µg/mL
same,MIC,[8],> 64 µg/mL
same,MIC,[9],2 µg/mL
same,MIC,[10],8 µg/mL
same,MIC,[11],8 µg/mL
CO/N=C(\C(=O)N[C@@H]1C(=O)N2C(C(=O)[O-])=C(C[N+]3(C)CCCC3)CS[C@H]12)c1csc(N)n1,MIC,[12],1 µg/mL
same,MIC,[13],0.125 µg/mL
same,MIC,[14],4 µg/mL
same,MIC,[15],0.25 µg/mL
same,MIC,[16],0.125 µg/mL
same,MIC,[17],1 µg/mL
same,MIC,[4],≤ 0.03 µg/mL
same,MIC,[5],16 µg/mL
same,MIC,[7],0.125 µg/mL
same,MIC,[18],0.125 µg/mL
same,MIC,[19],16 µg/mL
same,MIC,[20],4 µg/mL
same,MIC,[21],0.25 µg/mL
same,MIC,[22],4 µg/mL
same,MIC,[23],0.25 µg/mL
same,MIC,[24],1 µg/mL
same,MIC,[25],0.25 µg/mL
same,MIC,[26],0.125 µg/mL
same,MIC,[27],1 µg/mL
same,MIC,[28],0.125 µg/mL
same,MIC,[10],1 µg/mL
CC(C)(O/N=C(/C(=O)N[C@@H]1C(=O)N(OS(=O)(=O)O)C1(C)C)c1csc(N)n1)C(=O)O (stereo in doubt),MIC,[1],0.5 µg/mL
same,MIC,[16],0.25 µg/mL
same,MIC,[4],0.25 µg/mL
same,MIC,[5],1 µg/mL
same,half-life,[29],4.17 days
same,MIC,[9],0.25 µg/mL
same,MIC,[30],0.25 µg/mL
same,MIC,[11],> 32 µg/mL
CC(C)(O/N=C(\C(=O)N[C@@H]1C(=O)N(S(=O)(=O)O)[C@@H]1Cn1ccnn1)c1csc(N)n1)C(=O)O (stereo in doubt),MIC,[1],2 to 4 µg/mL
same,MIC,[4],0.5 µg/mL
same,MIC,[5],1 µg/mL
same,MIC,[7],8 µg/mL
same,half-life,[29],10.7 days
same,MIC,[9],2 µg/mL
same,MIC,[30],0.5 µg/mL
same,MIC,[10],2 µg/mL
same,MIC,[11],4 µg/mL
CC(C)(O/N=C(\C(=O)N[C@@H]1C(=O)N2C(C(=O)[O-])=C(C[n+]3ccccc3)CS[C@H]12)c1csc(N)n1)C(=O)O [CEFTAZIDIME],MIC,[1],8 µg/mL
same,MIC,[12],64 µg/mL
same,MIC,[13],0.5 µg/mL
same,MIC,[14],> 64 µg/mL
same,MIC,[15],64 µg/mL
same,MIC,[31],0.125 µg/mL
same,MIC,[16],0.25 µg/mL
same,MIC,[17],> 64 µg/mL
same,MIC,[32],4 µg/mL
same,MIC,[4],0.125 µg/mL
same,MIC,[33],4 µg/mL
same,MIC,[5],8 µg/mL
same,MIC,[34],> 64 µg/mL
same,MIC,[35],> 64 µg/mL
same,MIC,[36],16 µg/mL
same,MIC,[7],64 µg/mL
same,MIC,[18],0.125 µg/mL
same,MIC,[19],> 64 µg/mL
same,MIC,[37],> 64 µg/mL
same,MIC,[38],0.25 µg/mL
same,MIC,[39],> 64 µg/mL
same,MIC,[40],> 64 µg/mL
same,MIC,[41],2 µg/mL
same,MIC,[42],> 64 µg/mL
same,MIC,[20],> 64 µg/mL
same,MIC,[21],0.125 µg/mL
same,MIC,[22],> 64 µg/mL
same,MIC,[43],8 µg/mL
same,MIC,[44],8 µg/mL
same,MIC,[45],0.25 µg/mL
same,MIC,[23],> 64 µg/mL
same,MIC,[46],0.125 µg/mL
same,MIC,[47],0.25 µg/mL
same,MIC,[24],64 µg/mL
same,MIC,[25],0.5 µg/mL
same,MIC,[48],> 64 µg/mL
same,MIC,[26],0.25 µg/mL
same,MIC,[49],32 µg/mL
same,MIC,[9],8 µg/mL
same,MIC,[27],1 µg/mL
same,MIC,[30],> 64 µg/mL
same,MIC,[50],> 64 µg/mL
same,MIC,[28],8 µg/mL
same,MIC,[10],> 64 µg/mL
same,MIC,[11],> 64 µg/mL
CC(C)(O/N=C(/C(=O)N[C@@H]1C(=O)N(S(=O)(=O)O)[C@@H]1CF)c1csc(N)n1)C(=O)O (stereo in doubt),MIC,[1],4 µg/mL
same,MIC,[16],0.06 µg/mL
same,MIC,[4],0.125 µg/mL
same,MIC,[5],0.25 µg/mL
same,half-life,[29],41.2 days
same,MIC,[9],1 µg/mL
same,MIC,[30],0.125 µg/mL
same,MIC,[11],32 µg/mL
